Where a name gives a salt, the structure may show the parent alone. Read-outs that look alike come from different tables or passages of the source.

The test has as its system murine neural precursor cells (neurosphere cultures). Nature of the test: HTS of LOPAC library against secondary neurosphere cultures, MTT proliferation assay at 3 μM, day 7 (z score, P value). Type of test: cell-based, mouse.
Where [1] appears, read: LOPAC library screen, 3 μM, MTT, neurosphere cultures.
The mark [2] stands for this setting: LOPAC primary screen, neurosphere MTT proliferation, 3 μM, day 7.
Setting [3] is: yes/no: significantly inhibited neurosphere proliferation (P<0.01) in primary screen.
The mark [4] stands for this setting: LOPAC library screen at 3 μM, secondary neurosphere cultures, MTT.
The mark [5] stands for this setting: primary LOPAC screen, 3 μM, MTT, neurosphere proliferation.
Setting [6] is: yes/no: significantly inhibited neurosphere proliferation in the primary screen.
Where [7] appears, read: LOPAC screen, neurosphere MTT proliferation, 3 μM, day 7.
Where [8] appears, read: yes/no: significantly inhibited neurosphere proliferation in primary screen.
The mark [9] stands for this setting: LOPAC library screen, 3 μM, MTT, secondary neurosphere cultures, day 7.
The mark [10] stands for this setting: yes = significantly inhibited neurosphere proliferation (P<0.01) in the primary screen.
[11] abbreviates: yes/no: significantly inhibited neurosphere proliferation (P<0.01) in the primary screen.

In the case of `O=C(O)c1cc(=O)c2c(Cl)cc(Cl)cc2[nH]1` [5,7-Dichlorokynurenic acid], the “Z Score” value under setting [1] is listed as 0.9011. Under setting [2], the Z score is 0.901. Besides, the Activity entry under setting [3] was “no”.

For the compound `c1ccc2c(c1)CCCC2C1=NCCN1` (centres unmarked) [Tetrahydrozoline hydrochloride], the “Z Score” value under setting [4] is −0.4693. Further, the Z score under setting [5] was −0.469. The Activity entry under setting [6] was “no”.

Turning to `CC(C)C[C@H](NC(=O)[C@H](O)[C@H](N)Cc1ccccc1)C(=O)O` [Epibestatin hydrochloride], the “Z Score” value under setting [4] is −0.7869. Also, under setting [7], the Z score was −0.787. The Activity result under setting [3] was “no”.

As to `NNC(N)=O` [Semicarbazide hydrochloride], the “Z Score” value was −1.405. The compound further had a Z score under setting [2] of −1.405. For the same compound, the Activity entry under setting [8] is “no”.

Turning to `CC(=O)[C@]1(O)Cc2c(O)c3c(c(O)c2[C@@H](O[C@H]2C[C@H](N)[C@H](O)[C@H](C)O2)C1)C(=O)c1ccccc1C3=O` [Idarubicin], the “Z Score” value under setting [9] is −11.27. Moreover, under setting [2], the Z score is reported as −11.274. In addition, the Activity entry under setting [10] is given as “yes”.

In the case of `C[N+](C)(C)CCCCCC[N+](C)(C)C.[Cl-].[Cl-]` [Hexamethonium dichloride], the “Z Score” value is recorded as −10.63. Also, the Z score under setting [2] was −10.634. Also, under setting [11], the Activity result was “yes”.

For S-(−)-Carbidopa, under setting [9], the “Z Score” value is reported as −2.314. In addition, the Z score under setting [7] is listed as −2.314. The Activity result under setting [3] was “no”.

Take `Br.Br.N=C(N)SCCc1ccc(CCSC(=N)N)cc1` [1,4-PBIT dihydrobromide]: the “Z Score” value was −1.179. Further, under setting [2], the Z score is reported as −1.179. Further, the Activity result under setting [8] is given as “no”.

Take `CCN(CC)C(=O)NC1C=C2c3cccc4[nH]cc(c34)C[C@H]2N(C)C1.O=C(O)/C=C\C(=O)O` (stereo partly drawn) [R(+)-Lisuride hydrogen maleate]: the “Z Score” value is −1.041. Further, the Z score under setting [2] is reported as −1.041.

Regarding `Br.C=CCN1CCc2cc(O)c(O)cc2C(c2ccccc2)C1` (racemic) [(±)-SKF 38393, N-allyl-, hydrobromide], the Activity entry was “no”. Under setting [5], this compound came in with a Z score of −1.590.

Regarding `Oc1ccccc1O` [Pyrocatechol], the “Z Score” value is reported as −2.053. This compound also yielded a Z score under setting [7] of −2.053. Also, the Activity result under setting [3] is “no”.

On to `C[N+](C)(C)CCOC(=O)CBr.[Br-]` [Bromoacetylcholine bromide], for which the “Z Score” value is reported as −0.3547. Also, under setting [7], the Z score is recorded as −0.355. Moreover, the Activity result under setting [3] is given as “no”.

Regarding `COc1ccc2c(c1)c(CC(=O)O)c(C)n2C(=O)c1ccc(Cl)cc1` [Indomethacin], the “Z Score” value under setting [4] is −0.3563. Also, under setting [2], the Z score was −0.356. Moreover, the Activity entry under setting [11] was “no”.

As for `O=P1(N(CCCl)CCCl)NCCCO1` (centres unmarked) [Cyclophosphamide monohydrate], the Activity entry is listed as “no”, the “Z Score” value is on record as −0.9758 and the Z score was −0.976.

The compound `Br.CCCN(CCC)C1CCc2ccc(O)cc2C1` (racemic) [(±)-7-Hydroxy-DPAT hydrobromide] came in with a Z score under setting [2] of −11.102. In addition, the Activity result under setting [11] is reported as “yes”.

As to `Cn1cnc2c(NC3CCCC3)ncnc21` [N6-Cyclopentyl-9-methyladenine], under setting [9], the “Z Score” value was −2.112. The same compound came in with a Z score under setting [2] of −2.112. The Activity entry under setting [8] is recorded as “no”.

`C[C@](N)(Cc1ccc(O)c(O)c1)C(=O)O` [L-alpha-Methyl DOPA]: the “Z Score” value was −0.897. The same compound gave a Z score under setting [2] of −0.897. The Activity result under setting [10] is listed as “no”.

As for `Cc1cccc(/C=C/c2ccccc2)n1` [SIB 1893], the “Z Score” value is recorded as −0.848. The Z score under setting [2] is given as −0.848. Further, under setting [8], the Activity entry was “no”.

Turning to `Nc1nc(N)c2nc(-c3ccccc3)c(N)nc2n1` [Triamterene], the “Z Score” value under setting [9] is given as −4.642. For the same compound, under setting [2], the Z score is reported as −4.642. Moreover, under setting [10], the Activity result is recorded as “yes”.

For the compound `CCCN(CCC)[C@@H]1CCc2c(F)ccc(O)c2C1.Cl` [R(+)-UH-301 hydrochloride], the “Z Score” value is listed as −2.517. The same compound had a Z score under setting [2] of −2.517. The Activity entry under setting [11] was “yes”.

For `CC(C)C[C@H](NC(=O)[C@@H](O)[C@H](N)Cc1ccccc1)C(=O)O` [Bestatin hydrochloride], the “Z Score” value under setting [1] came to 0.6432. Under setting [7], the Z score was 0.643. In addition, the Activity entry under setting [3] is given as “no”.

For `CC[C@H](NC(=O)c1c(C)c(-c2ccccc2)nc2ccccc12)c1ccccc1` [SB 222200], the “Z Score” value was −1.695. In addition, the Z score under setting [5] is listed as −1.695. Moreover, under setting [6], the Activity result is recorded as “no”.

Turning to `CC(C)NCC(O)COc1ccc(CCOCC2CC2)cc1` (centres unmarked) [Betaxolol hydrochloride], the “Z Score” value under setting [1] stood at 0.9838. Also, under setting [7], the Z score was 0.984. The Activity result under setting [3] is given as “no”.

Turning to `O=NN(CCCl)C(=O)NCCCl` [Carmustine], for the setting “LOPAC library screen at 3 μM, MTT, secondary neurosphere cultures, screened in singlets”, the “Z Score” value is 2.191. Further, the Z score under setting [7] was determined as 2.191. Under setting [3], the Activity entry is reported as “no”.

Turning to `O=C1CCC(N2C(=O)c3ccccc3C2=O)C(=O)N1` (centres unmarked) [(B1)-Thalidomide], the “Z Score” value is on record as 0.521.

As to `Ic1ccccc1CNC1C2CCN(CC2)C1C(c1ccccc1)c1ccccc1.O=C(O)C(=O)O` [L-703,606 oxalate], under setting [4], the “Z Score” value is reported as −0.5069. The same compound came in with a Z score under setting [2] of −0.507. Under setting [10], the Activity result is “no”.

Take `COc1ccc(CCN(C)CCCC(C#N)(c2cc(OC)c(OC)c(OC)c2)C(C)C)cc1OC.Cl` (centres unmarked) [(B1)-Methoxyverapamil hydrochloride]: the “Z Score” value is on record as −1.407.

Take `NC[C@H](O)c1ccc(O)c(O)c1.O=C(O)C(O)C(O)C(=O)O` (racemic) [(±)-Norepinephrine (+)bitartrate]: the Z score under setting [2] worked out at 0.099. Moreover, under setting [8], the Activity entry is reported as “no”.

For the compound `NC(CCCP(=O)(O)O)C(=O)O` (racemic) [(±)-2-Amino-5-phosphonopentanoic acid], under “168 h, 3 µM”, the Z score is listed as −1.045. For the same compound, under setting [6], the Activity entry is recorded as “no”.

Take `Br.Cc1o[nH]c(=O)c1CC(N)C(=O)O` (racemic) [(±)-AMPA hydrobromide]: the Z score under setting [2] was −0.427. Also, the Activity entry under setting [3] is reported as “no”.

`O=C(O)/C=C\C(=O)O.O=[N+]([O-])c1ccc2nc(N3CCNCC3)ccc2c1` [Quipazine, 6-nitro-, maleate]: the “Z Score” value under setting [1] is 0.9782. For the same compound, the Z score under setting [2] was found to be 0.978. Also, the Activity entry under setting [8] was “no”.

Turning to Ceramide, the “Z Score” value is given as −0.8267. For the same compound, the Z score under setting [5] is listed as −0.827. Besides, the Activity entry under setting [6] was “no”.

For `Cc1nc(N=Nc2ccc(S(=O)(=O)O)cc2S(=O)(=O)O)c(COP(=O)(O)O)c(C=O)c1O` [PPADS], the “Z Score” value was determined as 1.106. Under setting [2], the Z score was determined as 1.106. Also, the Activity entry under setting [8] is “no”.

On to `Cc1cc(O)c2c(c1)C(=O)c1cc(O)cc(O)c1C2=O` [Emodin], for which, where the note is “168 h, 3 µM”, the “Z Score” value is given as −0.4835 and the Z score is −0.483. The Activity entry under setting [3] was “no”.

Turning to `COc1ccc2c(c1)[C@@]13CCCC[C@H]1[C@@H](C2)NCC3.Cl` [3-Methoxy-morphanin hydrochloride], the “Z Score” value is listed as −7.714. The same compound came in with a Z score under setting [2] of −7.714. Moreover, the Activity result under setting [11] is given as “yes”.

Source of the values: patent publication US8058243B2, “Method for treating a brain cancer with ifenprodil” (HSC Research and Development Limited Partnership, priority 2006, dated 2011).
